We go through three molecules from US7091218B1 (priority 1999, dated 2006).

Usually melting point stands for the temperature of the solid-liquid transition. The IC50 is the point on the concentration scale where inhibition reaches its midpoint.

Counter-ions that a name gives are not always drawn.

The target in one series is T1, acetylcholinesterase (Rattus norvegicus, UniProt P37136).
T1 construct: Using rat brain homogenate as a source of acetylcholinesterase; from tissue; host or cells: rat brain homogenate
T1 sequence (P37136 32-614): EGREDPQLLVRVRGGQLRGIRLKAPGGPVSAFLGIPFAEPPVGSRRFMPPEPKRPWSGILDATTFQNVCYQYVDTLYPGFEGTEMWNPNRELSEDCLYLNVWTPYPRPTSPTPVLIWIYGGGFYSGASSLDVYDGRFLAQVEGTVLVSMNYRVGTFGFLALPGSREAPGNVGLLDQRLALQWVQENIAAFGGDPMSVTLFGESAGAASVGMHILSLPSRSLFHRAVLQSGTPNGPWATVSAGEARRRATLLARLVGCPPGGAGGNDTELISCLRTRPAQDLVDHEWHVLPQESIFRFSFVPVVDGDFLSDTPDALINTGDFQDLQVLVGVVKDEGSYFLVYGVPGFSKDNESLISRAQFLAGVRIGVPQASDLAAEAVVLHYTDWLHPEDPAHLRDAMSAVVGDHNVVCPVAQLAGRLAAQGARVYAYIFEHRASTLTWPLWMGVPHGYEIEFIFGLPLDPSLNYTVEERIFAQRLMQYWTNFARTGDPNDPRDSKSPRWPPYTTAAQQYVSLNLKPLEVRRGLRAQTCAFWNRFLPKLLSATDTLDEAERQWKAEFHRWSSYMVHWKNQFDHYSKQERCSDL
Kind of series: biochemical. Particulars: rat brain homogenate as enzyme source; acetylthiocholine substrate, DTNB, absorbance at 412 nm. As to the method:
In Vitro Acetylcholinsterase Inhibitory Effect
Using rat brain homogenate as a source of acetylcholinesterase, esterase activity was assayed in accordance with the method of Ellman et al. ^1). That is, acetylthiocholin as a substrate, a test compound and DTNB (5,5′-dithiobis(2-nitrobenzoic acid)) were added to […] brain homogenate, and after incubation, the produced thiocholine was reacted with DTNB to produce a yellow product. This was measured as a change in absorbance at 412 nm to obtain acetylcholineesterase activity. The acetylcholineesterase inhibiting activity of each test compound was obtained as 50% inhibition concentration (IC50). Note that the test compounds were used after dissolving them in physiological saline. Ellman, G. L., Courtney, K. D., Andres, V. and Featherstone, R. M., (1961), Biochem. Pharmacol., 7, 88–95.

The molecule `COc1cc2c(cc1OC)C(=O)C(CC1CCN(Cc3ccccc3)CC1)(N=[N+]=[N-])C2.Cl` (stereo not drawn) gave a melting point of 153 to 154 °C.

With `COc1cc2c(cc1OC)C(=O)C(Cl)(CC1CCN(Cc3ccccc3)CC1)C2` (stereo not drawn) [Example 1, 1-Benzyl-4-[(5,6-dimethoxy-2-chloro-1-indanon)-2-yl]methylpiperidine hydrochloride], the IC50 on acetylcholinesterase stood at 2 nM.

Consider `CCOc1cc2c(cc1OCC)C(=O)C(Cl)(CC1CCN(Cc3ccccc3)CC1)C2` (stereo not drawn) [Example 6, hydrochloride], for which half-maximal inhibition against acetylcholinesterase (IC50) was put at 2 nM.
